Measured values taken from ChEMBL document CHEMBL1147228, “Dammarane-type triterpenes from the Brazilian medicinal plant Cordia multispicata” (J Nat Prod, 2003).

Experiment: Antiandrogenic activity assessed as inhibition of testosterone 5alpha reductase at 100 ug/mL
Design: scale not given: the % may be the effect or the level left

Structure (SMILES)	Activity [%]
C/C(=C\C(O)C(O)C(C)(C)O)[C@H]1CC[C@]2(C)[C@@H]1C[C@@H](O)[C@@H]1[C@]34CC[C@](O)(OC3)C(C)(C)[C@@H]4CC[C@]12C (stereo not given in full)	-2.09
C=C(C)C(O)C(O)/C=C(\C)[C@H]1CC[C@]2(C)[C@@H]1C[C@@H](O)[C@@H]1[C@]34CC[C@](O)(OC3)C(C)(C)[C@@H]4CC[C@]12C (stereo not given in full)	18
C/C(=C\C(O)C1OC1(C)C)[C@H]1CC[C@]2(C)[C@@H]1C[C@@H](O)[C@@H]1[C@]34CC[C@](O)(OC3)C(C)(C)[C@@H]4CC[C@]12C (stereo not given in full)	15.1
C/C(=C\C(O)C1OC1(C)C)[C@H]1CC[C@]2(C)[C@@H]1C[C@@H](O)[C@@H]1[C@@]3(C)CCC(=O)C(C)(C)[C@@H]3CC[C@]12C (stereo not given in full)	43.1
COC(C)(C)C(O)C(O)/C=C(\C)[C@H]1CC[C@]2(C)[C@@H]1C[C@@H](O)[C@@H]1[C@]34CC[C@](O)(OC3)C(C)(C)[C@@H]4CC[C@]12C (stereo not given in full)	19
